Literature values, collected in PMC4061246 (Biochimica et biophysica acta, 2014).

Details: reported

Row | aqueous solubility | SMILES
1 | < 1 µg/mL | Cc1cc(C#N)cc(C)c1Oc1nc(Nc2ccc(C#N)cc2)nc(N)c1Br [etravirine]
2 | 0.02 to 0.24 µg/mL | Cc1cc(/C=C/C#N)cc(C)c1Nc1ccnc(Nc2ccc(C#N)cc2)n1 [rilpivirine]
